Reference: US9980919B2, “Preparation of pH-responsive nanoparticles and promoted delivery of anticancer drugs into deep tumor tissues and application thereof” (NATIONAL TSING HUA UNIVERSITY, priority 2015, dated 2018)

Experiments:
Format in all cases: in vivo, C57BL/6J mice
TRAMP-C1 tumor [1] = test: Tumor local temperature under 808 nm NIR laser irradiation (infrared thermal imaging camera); conditions: 6 hours post-injection; 808 nm laser 1.0 W/cm^2, 5 min; ICG 1.6 mg/kg I.V.
Experimental: (§1) Please refer to FIG. 15. FIG. 15 is a time—temperature figure of the pH-responsive ICG/DOX-loaded NHTPNs of an embodiment in the instant disclosure. […] 6 hours post-injection, the mice (5 in each group) were irradiated at the tumor sites with 808 nm laser (1.0 W/cm^2) for 5 min. The tumor volumes of various groups were measured daily and normalized against the original volumes to assess the antitumor efficacy. The tumor local temperature was monitored by infrared thermal imaging camera.

TRAMP-C1 tumor [2] = test: ICG fluorescence accumulated in organs and tumor of TRAMP-C1 tumor-bearing mice (IVIS); conditions: 48 hours after tail vein injection; ICG 1.6 mg/kg
Experimental: (§2) Please refer to FIGS. 12 and 14. […] To establish tumor model, 2×10^7 TRAMP-C1 cells were subcutaneously injected into the right thigh of mice. Two weeks post-inoculation, the low permeability tumor model was established. Tumor volume (V) was calculated as follows: V=L×W^2/2, where W is the tumor measurement at the widest point and L the tumor dimension at the longest point. […] The fluorescence signals of ICG (Ex. 745 nm and Em. 810 nm) at 2, 4, 6, 24 and 48 h post-injection were collected on the IVIS. The treated mice were then sacrificed and the major organs harvested for individual organ imaging by IVIS. After tail vein injection for 48 hours and observation in vivo experiments, the mouse was sacrificed and its major organs and tumors taken for detecting ICG fluorescent performance of each organ using a non-invasive in vivo imaging system (IVIS).

TRAMP-C1 tumor [3] = test: Tumor growth inhibition (relative tumor volume over 15 days) in TRAMP-C1 tumor-bearing mice; conditions: with NIR laser (+laser)
Experimental: as §2, §1

- ICG fluorescent expression in the tumor (TRAMP-C1 tumor [2]): no fluorescent expression in the tumor
- organ in which the ICG fluorescence is expressed (TRAMP-C1 tumor [2]): mostly expressed in the liver
Compound: CC1(C)C(/C=C/C=C/C=C/C=C2\N(CCCCS(=O)(=O)O)c3ccc4ccccc4c3C2(C)C)=[N+](CCCCS(=O)(=O)[O-])c2ccc3ccccc3c21 [Free ICG, indocyanine green]
- highest temperature in the tumor (TRAMP-C1 tumor [1]): 41.4 °C
- tumor growth inhibition effect (TRAMP-C1 tumor [3]): no significant tumor growth inhibition effect
